From patent US8378097B2, “3-(1,3-benzodioxol-5-yl)-6-(4-cyclopropylpiperazin-1-yl)-pyridazine, its salts and solvates and its use as histamine H3 receptor antagonist” (High Point Pharmaceuticals, LLC, priority 2006, dated 2013) come the findings set out here.

Structures can show the parent of a compound that is named as a salt.

Data set [1] in a line: mutagenic activity test.
Data set [2] in a line: tests with mice: intake of food. In kind it is in vivo. The settings on record: in tests with mice.

`c1cc2c(cc1-c1ccc(N3CCN(C4CC4)CC3)nn1)OCO2` [Example 1, 3-(1,3-Benzodioxol-5-yl)-6-(4-cyclopropylpiperazin-1-yl)pyridazine dihydrochloride]: the mutagenic activity result in data set [1] is recorded as “No mutagenic activity”. Also, in data set [2], the “effect on the intake of food” value is given as “reducing effect on the intake of food”.
